The compounds below were run against (Homo sapiens, UniProt P43220) (assay: h-GLP-1 activity assay (cAMP HTRF, HEK293 cells with stable expression of human GLP-1)). Conditions: relative EC50, 10 nM human GLP-1 set as 100% response, 30 min at 37° C.
Chain of (Homo sapiens, UniProt P43220) (P43220 24-463): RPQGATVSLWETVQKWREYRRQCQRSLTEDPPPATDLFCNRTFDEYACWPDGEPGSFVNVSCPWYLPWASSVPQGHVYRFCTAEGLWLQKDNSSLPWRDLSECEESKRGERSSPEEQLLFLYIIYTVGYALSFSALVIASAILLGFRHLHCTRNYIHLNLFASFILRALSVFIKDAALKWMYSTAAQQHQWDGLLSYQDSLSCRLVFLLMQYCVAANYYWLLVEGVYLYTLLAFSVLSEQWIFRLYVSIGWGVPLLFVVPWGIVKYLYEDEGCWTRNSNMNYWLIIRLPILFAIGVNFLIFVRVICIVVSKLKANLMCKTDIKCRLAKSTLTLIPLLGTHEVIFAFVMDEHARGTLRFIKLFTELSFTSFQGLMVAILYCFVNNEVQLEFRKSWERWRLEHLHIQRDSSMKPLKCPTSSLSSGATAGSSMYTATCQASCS
Type: cell-based
Procedure: Human GLP-1 agonizing activity was detected in HEK293 cells with stable expression of human GLP-1 by Cisbio cAMP Gs dynamic kit (Catalog #62AM4PEC) according to manufacturer's protocol. Briefly, cells were collected and resuspended in assay buffer containing 0.1% BSA and 0.5 mM of IBMX at concentration to 2.5×10^5 cells/mL. Two μL 5× compound solution and 8 μL cell suspension were added to each well of low-volume 384 white assay plate. After 30 min incubation at 37° C., 5 μL cAMP-d2 working solution and 5 μL anti-cAMP antibody-cryptate were added to each well, and incubate at room temperature for 1 hr. Series dilution of cAMP was used as standard. Human GLP-1 (7-37) was used as positive control and 10 nM human GLP-1 was set as 100% response. HTRF signals were read at 665 and 615 nm with EnVision plate reader and calculated cAMP concentration by interpolation to the standard curve. The EC50 value of the tested compounds was calculated by fitting the dose response curve using a 4-parameter non-linear regression routine and relative EC50 was presented in Table 29.
`C[C@H]1c2c(-n3ccn(-c4ccc5c(cnn5C)c4F)c3=O)c(-c3ccc(F)c(C(F)(F)F)c3)nn2CCN1C(=O)c1cc2cc([C@@H]3CCOC(C)(C)C3)ccc2n1C1(c2noc(=O)[nH]2)CC1` (single isomer, unassigned) [Compound 65] was tested, and the EC50 was less than 20 nM.
In the case of `C[C@@H]1c2c(-n3ccn(-c4ccc5c(cnn5C)c4F)c3=O)c(-c3ccc(F)c(C(F)(F)F)c3)nn2CCN1C(=O)c1cc2cc([C@@H]3CCOC(C)(C)C3)ccc2n1C1(c2noc(=O)[nH]2)CC1` (single isomer, unassigned) [Compound 66], the EC50 is reported as greater than 100 nM.
`C[C@H]1c2c(nn(-c3ccc(F)c(Cl)c3)c2-n2ccn(-c3ccc4c(cnn4C)c3F)c2=O)CCN1C(=O)c1cc2cc([C@@H]3CCOC(C)(C)C3)ccn2c1C1(c2noc(=O)[nH]2)CC1` (single isomer, unassigned) [Compound 67] was tested, and the EC50 was less than 20 nM.
For `Cc1cc(-c2nn3c(c2-n2ccn(-c4ccc5c(cnn5C)c4F)c2=O)[C@@H](C)N(C(=O)c2cc4cc([C@@H]5CCOC(C)(C)C5)ccn4c2C2(c4noc(=O)[nH]4)CC2)CC3)cc(C)c1F` (single isomer, unassigned) [Compound 68], the EC50 was less than 20 nM.
`Cc1cc(-c2nn3c(c2-n2ccn(-c4ccc5c(cnn5C)c4F)c2=O)[C@@H](C)N(C(=O)c2cn4cc([C@@H]5CCOC(C)(C)C5)ccc4c2C2(c4noc(=O)[nH]4)CC2)CC3)cc(C)c1F` (single isomer, unassigned) [Compound 69] showed an EC50 of less than 20 nM.
`C[C@H]1c2c(nn(-c3ccc(F)c(F)c3)c2-n2ccn(-c3ccc4c(cnn4C)c3F)c2=O)CCN1C(=O)c1cn2cc([C@@H]3CCOC(C)(C)C3)ccc2c1C1(c2noc(=O)[nH]2)CC1` (single isomer, unassigned) [Compound 70] showed an EC50 of less than 20 nM.
Compound `C[C@H]1c2c(nn(-c3ccc(F)c(C(F)(F)F)c3)c2-n2ccn(-c3ccc4c(cnn4C)c3F)c2=O)CCN1C(=O)c1cn2cc([C@@H]3CCOC(C)(C)C3)ccc2c1C1(c2noc(=O)[nH]2)CC1` (single isomer, unassigned) [Compound 71] has an EC50 of less than 20 nM.
Work on `C[C@H]1c2c(nn(-c3cc(F)c(F)c(F)c3)c2-n2ccn(-c3ccc4c(cnn4C)c3F)c2=O)CCN1C(=O)c1cc2cc([C@@H]3CCOC(C)(C)C3)ccn2c1C1(c2noc(=O)[nH]2)CC1` (single isomer, unassigned) [Compound 72] yielded an EC50 of less than 20 nM.
With `C[C@H]1c2c(nn(-c3ccc(F)c(C(F)(F)F)c3)c2-n2ccn(-c3ccc4c(cnn4C)c3F)c2=O)CCN1C(=O)c1cc2cc([C@@H]3CCOC(C)(C)C3)ccn2c1C1(c2noc(=O)[nH]2)CC1` (single isomer, unassigned) [Compound 74] the EC50 was less than 20 nM.
Compound `C[C@H]1c2c(nn(-c3cc(F)c(F)c(F)c3)c2-n2ccn(-c3ccc4c(cnn4C)c3F)c2=O)CCN1C(=O)c1cn2cc([C@@H]3CCOC(C)(C)C3)ccc2c1C1(c2noc(=O)[nH]2)CC1` (single isomer, unassigned) [Compound 75] has an EC50 of less than 20 nM.
`Cc1cc(-n2nc3c(c2-n2ccn(-c4ccc5c(cnn5C)c4F)c2=O)[C@H](C)N(C(=O)c2cc4cc([C@@H]5CCOC(C)(C)C5)ccn4c2C2(c4noc(=O)[nH]4)CC2)CC3)ccc1F` (single isomer, unassigned) [Compound 77] showed an EC50 of less than 20 nM.
`C[C@H]1c2c(nn(-c3ccc(F)c(F)c3)c2-n2ccn(-c3ccc4c(cnn4C)c3F)c2=O)CCN1C(=O)c1cc2cc([C@@H]3CCOC(C)(C)C3)ccn2c1C1(c2noc(=O)[nH]2)CC1` (single isomer, unassigned) [Compound 78] was tested, and the EC50 was less than 20 nM.
`Cc1cc(-n2nc3c(c2-n2ccn(-c4ccn5c(C)nnc5c4)c2=O)[C@H](C)N(C(=O)c2cn4cc([C@@H]5CCOC(C)(C)C5)ccc4c2C2(c4noc(=O)[nH]4)CC2)CC3)cc(C)c1F` (single isomer, unassigned) [Compound 79] showed an EC50 of less than 20 nM.
With `C[C@H]1c2c(nn(-c3ccc(F)c(OC(F)(F)F)c3)c2-n2ccn(-c3ccc4c(cnn4C)c3F)c2=O)CCN1C(=O)c1cn2cc([C@@H]3CCOC(C)(C)C3)ccc2c1C1(c2noc(=O)[nH]2)CC1` (single isomer, unassigned) [Compound 80] the EC50 was less than 20 nM.
With `C[C@H]1c2c(nn(-c3ccc(F)c(OC(F)(F)F)c3)c2-n2ccn(-c3ccc4c(cnn4C)c3F)c2=O)CCN1C(=O)c1cc2cc([C@@H]3CCOC(C)(C)C3)ccn2c1C1(c2noc(=O)[nH]2)CC1` (single isomer, unassigned) [Compound 81] the EC50 was less than 20 nM.
Work on `Cc1cc(-n2nc3c(c2-n2ccn(-c4ccc5c(cnn5C)c4F)c2=O)[C@H](C)N(C(=O)c2nn4cc([C@H]5CCOC(C)(C)C5)ccc4c2C2(c4noc(=O)[nH]4)CC2)CC3)cc(C)c1F` (single isomer, unassigned) [Compound 82] yielded an EC50 of 20 to 100 nM.
`Cc1cc(-n2nc3c(c2-n2ccn(-c4ccc5c(cnn5C)c4F)c2=O)[C@H](C)N(C(=O)c2nn4cc([C@@H]5CCOC(C)(C)C5)ccc4c2C2(c4noc(=O)[nH]4)CC2)CC3)cc(C)c1F` (single isomer, unassigned) [Compound 83] gave an EC50 of less than 20 nM.
`C[C@H]1c2c(nn(-c3ccc(F)c(C4CC4)c3)c2-n2ccn(-c3ccc4c(cnn4C)c3F)c2=O)CCN1C(=O)c1nn2cc([C@@H]3CCOC(C)(C)C3)ccc2c1C1(c2noc(=O)[nH]2)CC1` (single isomer, unassigned) [Compound 84] gave an EC50 of less than 20 nM.
For `C[C@H]1c2c(nn(-c3ccc(F)c(C4CC4)c3)c2-n2ccn(-c3ccc4c(cnn4C)c3F)c2=O)CCN1C(=O)c1c(C2(c3noc(=O)[nH]3)CC2)c2ccc([C@@H]3CCOC(C)(C)C3)cn2c1Cl` (single isomer, unassigned) [Compound 85], the EC50 was 20 to 100 nM.
In the case of `Cc1cc(-n2nc3c(c2-n2ccn(-c4ccc5c(cnn5C)c4F)c2=O)[C@H](C)N(C(=O)c2cn4cc([C@H]5CCOC6(CC6)C5)ccc4c2C2(c4noc(=O)[nH]4)CC2)CC3)cc(C)c1F` (single isomer, unassigned) [Compound 86], the EC50 is reported as less than 20 nM.
`Cc1cc(-n2nc3c(c2-n2ccn(-c4ccc5c(cnn5C)c4F)c2=O)[C@H](C)N(C(=O)c2cn4cc([C@@H]5CCOC6(CC6)C5)ccc4c2C2(c4noc(=O)[nH]4)CC2)CC3)cc(C)c1F` (single isomer, unassigned) [Compound 87] showed an EC50 of less than 20 nM.
Compound `C[C@H]1c2c(nn(-c3ccc(F)c(C4CC4)c3)c2-n2ccn(-c3ccc4c(cnn4C)c3F)c2=O)CCN1C(=O)c1c(Cl)c2cc([C@@H]3CCOC(C)(C)C3)ccn2c1C1(c2noc(=O)[nH]2)CC1` (single isomer, unassigned) [Compound 88] has an EC50 greater than 100 nM.
Work on `C[C@H]1c2c(nn(-c3ccc(F)c(C4CC4)c3)c2-n2ccn(-c3ccc4c(cnn4C)c3F)c2=O)CCN1C(=O)c1cn2nc([C@H]3CCOC(C)(C)C3)ccc2c1C1(c2noc(=O)[nH]2)CC1` (single isomer, unassigned) [Compound 89] yielded an EC50 of 20 to 100 nM.
`C[C@H]1c2c(nn(-c3ccc(F)c(C4CC4)c3)c2-n2ccn(-c3ccc4c(cnn4C)c3F)c2=O)CCN1C(=O)c1cn2cc([C@@H]3CCOC(C)(C)C3)cc(F)c2c1C1(c2noc(=O)[nH]2)CC1` (single isomer, unassigned) [Compound 92] was tested, and the EC50 was less than 20 nM.
With `C[C@H]1c2c(nn(-c3ccc(F)c(C4CC4)c3)c2-n2ccn(-c3ccc4c(cnn4C)c3F)c2=O)CCN1C(=O)c1cc2cc([C@H]3CCOC(C)(C)C3)c(F)cn2c1C1(c2noc(=O)[nH]2)CC1` (single isomer, unassigned) [Compound 93] the EC50 was less than 20 nM.
For `C[C@H]1c2c(nn(-c3ccc(F)c(C4CC4)c3)c2-n2ccn(-c3ccc4c(cnn4C)c3F)c2=O)CCN1C(=O)c1cc2cc([C@@H]3CCOC(C)(C)C3)c(F)cn2c1C1(c2noc(=O)[nH]2)CC1` (single isomer, unassigned) [Compound 94], the EC50 was 20 to 100 nM.
`C[C@H]1c2c(nn(-c3ccc(F)c(C4CC4)c3)c2-n2ccn(-c3ccc4c(cnn4C)c3F)c2=O)CCN1C(=O)c1cc2c(F)c([C@H]3CCOC(C)(C)C3)ccn2c1C1(c2noc(=O)[nH]2)CC1` (single isomer, unassigned) [Compound 95] showed an EC50 greater than 100 nM.
Work on `C[C@H]1c2c(nn(-c3ccc(F)c(C4CC4)c3)c2-n2ccn(-c3ccc4c(cnn4C)c3F)c2=O)CCN1C(=O)c1cc2c(F)c([C@@H]3CCOC(C)(C)C3)ccn2c1C1(c2noc(=O)[nH]2)CC1` (single isomer, unassigned) [Compound 96] yielded an EC50 of less than 20 nM.
`C[C@H]1c2c(nn(-c3ccc(F)c(C4CC4)c3)c2-n2ccn(-c3ccc4c(cnn4C)c3F)c2=O)CCN1C(=O)c1nc2cc([C@H]3CCOC(C)(C)C3)ccn2c1C1(c2noc(=O)[nH]2)CC1` (single isomer, unassigned) [Compound 97] showed an EC50 greater than 100 nM.
With `C[C@H]1c2c(nn(-c3ccc(F)c(C4CC4)c3)c2-n2ccn(-c3ccc4c(cnn4C)c3F)c2=O)CCN1C(=O)c1nc2cc([C@@H]3CCOC(C)(C)C3)ccn2c1C1(c2noc(=O)[nH]2)CC1` (single isomer, unassigned) [Compound 98] the EC50 was 20 to 100 nM.
Work on `C[C@H]1c2c(nn(-c3ccc(F)c(C4CC4)c3)c2-n2ccn(-c3ccc4c(cnn4C)c3F)c2=O)CCN1C(=O)c1cc2cc([C@H]3CCOC(C)(C)C3)cnn2c1C1(c2noc(=O)[nH]2)CC1` (single isomer, unassigned) [Compound 99] yielded an EC50 of less than 20 nM.
In the case of `C[C@H]1c2c(nn(-c3ccc(F)c(C4CC4)c3)c2-n2ccn(-c3ccc4c(cnn4C)c3F)c2=O)CCN1C(=O)c1cc2cc([C@@H]3CCOC(C)(C)C3)cnn2c1C1(c2noc(=O)[nH]2)CC1` (single isomer, unassigned) [Compound 100], the EC50 is reported as 20 to 100 nM.
`C[C@H]1c2c(nn(-c3ccc(F)c(C4CC4)c3)c2-n2ccn(-c3ccc4c(cnn4C)c3F)c2=O)CCN1C(=O)c1cc2nc([C@H]3CCOC(C)(C)C3)ccn2c1C1(c2noc(=O)[nH]2)CC1` (single isomer, unassigned) [Compound 101] showed an EC50 greater than 100 nM.

Reference: patent US12037339B2, “Substituted imidazoles as GLP-1 receptor agonists” (Eccogene Inc., priority 2020, dated 2024)
